According to patent publication EP2628482A1, “Rho kinase inhiitors for use in the treatment of neuroblastoma” (Academisch Medisch Centrum, priority 2012, dated 2013):
Where a name gives a salt, the structure may show the parent alone.

Assays:
ROCK = conditions: cited from earlier work
off-target kinases = conditions: reported by Aerie Pharmaceuticals; cited from earlier work
[1] = system: neuroblastoma cell lines (SKNBE, IMR, SJNB8, SHEP2, SKNAS, SY5Y); test: MTT assay (cell viability); type: cell-based; conditions: for cell viability: all 6 neuroblastoma cell lines, 72 hours, 3 to 200 µM; for IC50: range over 6 neuroblastoma cell lines, 72 hours treatment, dose efficacy curves, read-out: IC50 (concentration drug needed for 50% cell viability reduction)
Experimental: To determine the sensitivity of the cell lines for the ROCK-inhibitors Y27632 and HA 1077 MTT assays were done. […] The IC50 (concentration drug needed for 50% cell viability reduction) of Y27632 determined by dose efficacy curves varied from 18 to 90 µM.
Cells were plated in a 10-30% confluence in a 96-well plate and treated after 24 hours with Y27632 (=Y27632 dihydrochloride; Tocris; Cat.nr. 1254) and HA1077 (=Fasudil hydrochloride; Tocris; Cat.nr. 0541) in a concentration ranging from 3 to 200 µM. 72 hours after treatment, 10 µl of Thyazolyl blue tetrazolium bromide (MTT, Sigma M2128) was added. After 4 hours of incubation 100 µl of 10% SDS, 0.01 M HCI was added to stop the reaction. The absorbance was measured at 570 nm and 720 nm using a platereader (biotech). The IC50 (concentration drug needed for 50% cell viability reduction) was calculated using concentration vector curves.

[2] = system: neuroblastoma cell lines (IMR32, SJNB8, SKNBE, SY5Y, SHEP2, SKNAS); test: Light microscopy of phenotypical changes after ROCK inhibitor treatment; type: cell-based; conditions: 25µM, 65 hours; cell bodies smaller, more elongated, neurite outgrowths appear
SHEP2 cells = test: Immunofluorescence (actin / tubulin staining); type: cell-based; conditions: 50 micromolar, 24 hours of treatment

Row | IC50 [1] [µM] | SMILES | potency against ROCK (ROCK) | number of off-target kinases tested at which activity was seen (off-target kinases) | cell viability [1] | phenotype of the cells (light microscope) [2] | actin organization (phalloidin staining) (SHEP2 cells) | tubulin localization (SHEP2 cells)
1 |  | CN(C)C(C(=O)Nc1ccc2c(=O)[nH]ccc2c1)c1ccsc1 (centres unmarked) [AR-12286] | nanomolar potency | 5 |  |  |  | 
2 | 15 to 45 | O=S(=O)(c1cccc2cnccc12)N1CCCNCC1 [HA 1077, Fasudil hydrochloride] |  |  | decrease in viability | more neuronal-like (differentiated) phenotype | structured actin fibres (green) disappear | moves from a nuclear localization towards the cytoplasm
3 | 18 to 90 | C[C@@H](N)[C@H]1CC[C@H](C(=O)Nc2ccncc2)CC1 [Y27632, Y27632 dihydrochloride] |  |  | decrease in viability | more neuronal-like (differentiated) phenotype |  | 
4 |  | C[C@@H](N)c1ccc(C(=O)Nc2ccnc3[nH]ccc23)cc1 [Y-39983/SNJ-1656/RKI-983] |  | 25 |  |  |  | 
